Experimental data reported in patent US20230002359A1, “PESTICIDALLY ACTIVE FUSED BICYCLIC HETEROAROMATIC COMPOUNDS” (priority 2019, published 2023).

Legend:
Format in all cases: in vivo
[1] = system: Diabrotica Balteata (Corn Root Worm); test: Example B1: Diabrotica balteata (corn root worm), maize sprouts sprayed, L2 larvae; settings: 96 h, application rate of 200 ppm, 4 days after infestation, L2 larvae, read-out: control in at least one of the two categories (mortality or growth inhibition)
How it was run: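 Maize sprouts on agar were sprayed with aqueous test solutions made from 10′000 ppm DMSO stocks, dried, then infested with 6 to 10 L2 larvae per well. Mortality and growth inhibition were scored against untreated samples 4 days after infestation.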

[2] = system: Chilo suppressalis (Striped Rice Stemborer); test: Example B3: Chilo suppressalis (striped rice stemborer), artificial diet, L2 larvae; settings: 144 h, application rate of 200 ppm, 6 days after infestation, L2 larvae, read-out: control in at least one of the three categories (mortality, anti-feedant effect, or growth inhibition)
How it was run: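 Artificial diet treated with aqueous dilutions of DMSO stocks (10'000 ppm stock), dried, then infested with 6-8 L2 larvae per well. Mortality, anti-feeding and growth inhibition scored against untreated samples 6 days after infestation. Control counted when any category exceeds untreated.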

[3] = system: Plutella xylostella (Diamond Back Moth); test: Example B4: Plutella xylostella (diamond back moth), artificial diet, eggs, 24-well; settings: 192 h, application rate of 200 ppm, 8 days after infestation, eggs, read-out: control in at least one of the two categories (mortality or growth inhibition)
Description: 24-well microtiter plates with artificial diet were treated with aqueous test solutions prepared from 10′000 ppm DMSO stock solutions by pipetting. After drying, Plutella eggs were pipetted through a plastic stencil onto a gel blotting paper and the plate was closed with it. The samples were assessed for mortality and growth inhibition in comparison to untreated samples 8 days after infestation.

[4] = system: Myzus persicae (Green Peach Aphid); test: Example B6: Myzus persicae (green peach aphid) intrinsic activity, sucrose solution; settings: 120 h, test rate of 12 ppm, 5 days after infestation, intrinsic activity, read-out: mortality
Description: Test compounds prepared from 10′000 ppm DMSO stock solutions were applied by pipette into 24-well microtiter plates and mixed with sucrose solution. The plates were closed with a stretched Parafilm. A plastic stencil with 24 holes was placed onto the plate and infested pea seedlings were placed directly on the Parafilm. The infested plate was closed with a gel blotting paper and another plastic stencil and then turned upside down. The samples were assessed for mortality 5 days after infestation.

[5] = system: Spodoptera littoralis (Egyptian Cotton Leaf Worm); test: Example B7: Spodoptera littoralis (Egyptian cotton leaf worm), cotton leaf discs sprayed, L1 larvae; settings: foliar, 72 h, application rate of 200 ppm, 3 days after infestation, L1 larvae, read-out: control in at least one of the three categories (mortality, anti-feedant effect, or growth inhibition)
How it was run: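 Leaf discs on agar sprayed with aqueous dilutions of 10′000 ppm DMSO stocks, dried, then infested with five L1 larvae. Mortality, anti-feeding and growth inhibition scored versus untreated 3 days after infestation; control given when any category exceeds untreated.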

CC(Nc1ncnc2c(OC(F)(F)F)cc(Br)cc12)c1nccnc1-c1ncccn1 (stereo not shown) [P.11, 6-bromo-N-[1-(3-pyrimidin-2-ylpyrazin-2-yl)ethyl]-8-(trifluoromethoxy)quina-zolin-4-amine]
≥ 80%: percent control (mortality or growth inhibition) at 200 ppm [1] | percent control (mortality, anti-feedant effect or growth inhibition) at 200 ppm [2] | percent control (mortality or growth inhibition) at 200 ppm [3] | mortality at 12 ppm [4] | percent control (mortality, anti-feedant effect or growth inhibition) at 200 ppm [5]

CC(Nc1ncnc2c(Br)cc(OC(F)(F)F)cc12)c1nccnc1-c1ncccn1 (stereo not shown) [P.12, 8-bromo-N-[1-(3-pyrimidin-2-ylpyrazin-2-yl)ethyl]-6-(trifluoromethoxy)quina-zolin-4-amine]
≥ 80%: percent control (mortality or growth inhibition) at 200 ppm [1] | percent control (mortality, anti-feedant effect or growth inhibition) at 200 ppm [2] | percent control (mortality or growth inhibition) at 200 ppm [3] | mortality at 12 ppm [4] | percent control (mortality, anti-feedant effect or growth inhibition) at 200 ppm [5]

C[C@H](Nc1ncnc2c(Cl)cc(C(F)(F)F)cc12)c1ncnn1-c1ncccn1 [P.18, 8-chloro-N-[(1S)-1-(2-pyrimidin-2-yl-1,2,4-triazol-3-yl)ethyl]-6-(trifluoromethyl)quinazolin-4-amine]
≥ 80%: percent control (mortality or growth inhibition) at 200 ppm [1] | percent control (mortality, anti-feedant effect or growth inhibition) at 200 ppm [2] | percent control (mortality or growth inhibition) at 200 ppm [3] | mortality at 12 ppm [4] | percent control (mortality, anti-feedant effect or growth inhibition) at 200 ppm [5]

C[C@H](Nc1ncnc2c(C(F)(F)F)cc(Cl)cc12)c1ncnn1-c1ccc(C#N)cn1 [P.22, 6-[5-[(1S)-1-[[6-chloro-8-(trifluoromethyl)quinazolin-4-yl]amino]ethyl]-1,2,4-triazol-1-yl]pyridine-3-carbonitrile]
≥ 80%: percent control (mortality or growth inhibition) at 200 ppm [1] | percent control (mortality, anti-feedant effect or growth inhibition) at 200 ppm [2] | percent control (mortality or growth inhibition) at 200 ppm [3] | mortality at 12 ppm [4] | percent control (mortality, anti-feedant effect or growth inhibition) at 200 ppm [5]

CC(Nc1ncnc2c(Br)cc(Br)cc12)c1ncnn1-c1ncccn1 (stereo not shown) [P.29, 6,8-dibromo-N-[1-(2-pyrimidin-2-yl-1,2,4-triazol-3-yl)ethyl]quinazolin-4-amine]
≥ 80%: percent control (mortality or growth inhibition) at 200 ppm [1] | percent control (mortality, anti-feedant effect or growth inhibition) at 200 ppm [2] | percent control (mortality or growth inhibition) at 200 ppm [3] | mortality at 12 ppm [4] | percent control (mortality, anti-feedant effect or growth inhibition) at 200 ppm [5]

CC(Nc1ncnc2c(OC(F)F)cc(Br)cc12)c1nccnc1-c1ncccn1 (stereo not shown) [P.32, 6-bromo-8-(difluoromethoxy)-N-[1-(3-pyrimidin-2-ylpyrazin-2-yl)ethyl]quinazolin-4-amine]
≥ 80%: percent control (mortality or growth inhibition) at 200 ppm [1] | percent control (mortality, anti-feedant effect or growth inhibition) at 200 ppm [2] | percent control (mortality or growth inhibition) at 200 ppm [3] | mortality at 12 ppm [4] | percent control (mortality, anti-feedant effect or growth inhibition) at 200 ppm [5]

CC(Nc1ncnc2c(C(F)(F)F)cc(Br)cc12)c1ncnn1-c1ncccn1 (stereo not shown) [P.44, 6-bromo-N-[1-(2-pyrimidin-2-yl-1,2,4-triazol-3-yl)ethyl]-8-(trifluoromethyl)quinazolin-4-amine]
≥ 80%: percent control (mortality or growth inhibition) at 200 ppm [1] | percent control (mortality, anti-feedant effect or growth inhibition) at 200 ppm [2] | percent control (mortality or growth inhibition) at 200 ppm [3] | mortality at 12 ppm [4] | percent control (mortality, anti-feedant effect or growth inhibition) at 200 ppm [5]

C[C@@H](c1ncnn1-c1ncccn1)N(C)c1ccnc2c(C(F)(F)F)cc(C(F)(F)F)cc12 [P.88, N-methyl-N-[(1S)-1-(2-pyrimidin-2-yl-1,2,4-triazol-3-yl)ethyl]-6,8-bis(trifluoromethyl)quino-lin-4-amine]
≥ 80%: percent control (mortality or growth inhibition) at 200 ppm [1] | percent control (mortality, anti-feedant effect or growth inhibition) at 200 ppm [2] | percent control (mortality or growth inhibition) at 200 ppm [3] | mortality at 12 ppm [4]

C[C@@H](c1ncnn1-c1ncccn1)N(C)c1ncnc2c(Cl)cc(OC(F)F)cc12 [P.91, 8-chloro-6-(difluoromethoxy)-N-methyl-N-[(1S)-1-(2-pyrimidin-2-yl-1,2,4-triazol-3-yl)ethyl]quinazolin-4-amine]
≥ 80%: percent control (mortality or growth inhibition) at 200 ppm [1] | percent control (mortality, anti-feedant effect or growth inhibition) at 200 ppm [2] | percent control (mortality or growth inhibition) at 200 ppm [3] | mortality at 12 ppm [4]

CC(c1nccnc1-c1ncccn1)N(C)c1ncnc2c(C(F)(F)F)cc(Br)cc12 (stereo not shown) [P.98, 6-bromo-N-methyl-N-[1-(3-pyrimidin-2-ylpyrazin-2-yl)ethyl]-8-(trifluoromethyl)quinazolin-4-amine]
≥ 80%: percent control (mortality or growth inhibition) at 200 ppm [1] | percent control (mortality, anti-feedant effect or growth inhibition) at 200 ppm [2] | percent control (mortality or growth inhibition) at 200 ppm [3] | mortality at 12 ppm [4] | percent control (mortality, anti-feedant effect or growth inhibition) at 200 ppm [5]

CC(c1nccnc1-c1ncccn1)N(C)c1ncnc2c(C(F)(F)F)cc(Cl)cc12 (stereo not shown) [P.132, 6-chloro-N-methyl-N-[1-(3-pyrimidin-2-ylpyrazin-2-yl)ethyl]-8-(trifluoromethyl)quinazolin-4-amine]
≥ 80%: percent control (mortality or growth inhibition) at 200 ppm [1] | percent control (mortality, anti-feedant effect or growth inhibition) at 200 ppm [2] | percent control (mortality or growth inhibition) at 200 ppm [3] | mortality at 12 ppm [4] | percent control (mortality, anti-feedant effect or growth inhibition) at 200 ppm [5]

CC(Nc1ncnc2c(C(F)(F)F)cc(Br)cc12)c1nccnc1-c1ncccn1 (stereo not shown) [P.133, 6-bromo-N-[1-(3-pyrimidin-2-ylpyrazin-2-yl)ethyl]-8-(trifluoromethyl)quinazolin-4-amine]
≥ 80%: percent control (mortality or growth inhibition) at 200 ppm [1] | percent control (mortality, anti-feedant effect or growth inhibition) at 200 ppm [2] | percent control (mortality or growth inhibition) at 200 ppm [3] | mortality at 12 ppm [4] | percent control (mortality, anti-feedant effect or growth inhibition) at 200 ppm [5]

C[C@H](Nc1ncnc2c(C(F)(F)F)cc(I)cc12)c1nccnc1-c1ccc(C#N)cn1 [P.162, 6-[3-[(1S)-1-[[6-iodo-8-(trifluoromethyl)quinazolin-4-yl]amino]ethyl]pyrazin-2-yl]pyridine-3-carbonitrile]
≥ 80%: percent control (mortality or growth inhibition) at 200 ppm [1] | percent control (mortality, anti-feedant effect or growth inhibition) at 200 ppm [2] | percent control (mortality or growth inhibition) at 200 ppm [3] | mortality at 12 ppm [4] | percent control (mortality, anti-feedant effect or growth inhibition) at 200 ppm [5]

CC(c1nccnc1-c1ncccn1)N(C)c1ncnc2c(Br)cc(Cl)cc12 (stereo not shown) [P.182, 8-bromo-6-chloro-N-methyl-N-[1-(3-pyrimidin-2-ylpyrazin-2-yl)ethyl]quinazolin-4-amine]
≥ 80%: percent control (mortality or growth inhibition) at 200 ppm [1] | percent control (mortality or growth inhibition) at 200 ppm [3] | mortality at 12 ppm [4] | percent control (mortality, anti-feedant effect or growth inhibition) at 200 ppm [5]
